Results: patent US7754721B2, “Arylpiperazine derivatives and uses thereof” (Roche Palo Alto LLC, priority 2006, dated 2010)
pKi: −log10 of the molar value.

Biological target: T1, human serotonin transporter (hSERT) (Homo sapiens, UniProt P31645)
T1 construct: expressed in transfected cells; membranes prepared
Test: hSERT scintillation proximity assay, competition with [3H]-Citalopram
Format: binding
Conditions: membranes of HEK-293 cells, Cheng-Prusoff
Description: The screening assay of this example was used to determine the affinity of ligands at the hSERT transporter by competition with [^3H]-Citalopram.
Scintillation Proximity Assay (SPA) works by bringing radioligand within close proximity to the bead's scintillant to stimulate light emission. In this assay, the receptor-containing membranes were pre-coupled to the SPA beads and the binding of the appropriate radioligand to the transporter was measured. The light emission was proportional to the amount of bound radioligand. Unbound radioligand produced no signal as a result of distant proximity to scintillant (lack of energy transfer). […]
Cell membranes were prepared using a membrane preparation buffer of 50 mM TRIS (pH 7.4). […] After a second centrifugation, the pellet was re-homogenized and brought to a final volume determined during the assay. […]
The % inhibition was calculated for each compound tested [(Compound counts per minute (CPM) at maximum concentration-Non-Specific CPM)/Total CPM*100]. […]
[formula] where max=total binding, min=non specific binding, x=concentration (M) of the tested compound and n=Hill slope. The inhibition dissociation constant (Ki) of each compound was determined according to the method of Cheng-Prusoff and then converted into negative logarithm (pKi) of the Ki.

T1 sequence (P31645 whole entry): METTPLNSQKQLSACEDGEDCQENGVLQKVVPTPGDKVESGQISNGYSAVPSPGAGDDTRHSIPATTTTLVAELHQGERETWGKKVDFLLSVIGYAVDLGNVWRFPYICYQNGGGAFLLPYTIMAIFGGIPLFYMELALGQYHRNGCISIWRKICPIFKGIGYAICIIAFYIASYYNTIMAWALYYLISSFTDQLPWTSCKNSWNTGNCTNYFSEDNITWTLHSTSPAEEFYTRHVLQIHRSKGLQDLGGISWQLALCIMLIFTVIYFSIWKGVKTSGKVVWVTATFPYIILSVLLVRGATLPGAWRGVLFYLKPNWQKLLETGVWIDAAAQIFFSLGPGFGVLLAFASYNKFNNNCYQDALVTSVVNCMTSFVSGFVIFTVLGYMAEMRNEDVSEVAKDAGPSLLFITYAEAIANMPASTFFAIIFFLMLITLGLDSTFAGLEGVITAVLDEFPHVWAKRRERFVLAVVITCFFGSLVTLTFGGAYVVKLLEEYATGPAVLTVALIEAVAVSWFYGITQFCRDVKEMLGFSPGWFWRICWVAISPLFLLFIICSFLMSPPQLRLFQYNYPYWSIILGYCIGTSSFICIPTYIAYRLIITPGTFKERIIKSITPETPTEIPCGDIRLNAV

c1ccc(CC2CNCCN2c2ccc3cnccc3c2)cc1 (stereo not shown) [6-(2-Benzyl-piperazin-1-yl)-isoquinoline]
pKi: ~9.87
